How the values were obtained:
SW-620 = assay: Cytotoxicity against human SW620 cells assessed as cell growth inhibition at 25 uM relative to control; format: functional
[1] = Protein binding in human plasma assessed as unbound fraction; format: ADME, cell-free
CYP3A4 = CYP3A4 (Homo sapiens, UniProt P08684); assay: Inhibition of CYP3A4 (unknown origin) at 10 uM relative to control; format: ADME
CYP2D6 = CYP2D6 (Homo sapiens, UniProt P10635); assay: Inhibition of CYP2D6 (unknown origin) at 10 uM relative to control; format: ADME
CYP2C19 = CYP2C19 (Homo sapiens, UniProt P33261); assay: Inhibition of CYP2C19 (unknown origin) at 10 uM relative to control; format: ADME
[2] = Half life in CD1 mouse at 5 mg/kg, ip; format: ADME, organism-based; conditions: in vivo
[3] = Mean residence time in CD1 mouse at 5 mg/kg, ip; format: ADME, organism-based; conditions: in vivo
[4] = Tmax in CD1 mouse at 5 mg/kg, ip; format: ADME, organism-based; conditions: in vivo
[5] = Cmax in CD1 mouse at 5 mg/kg, ip; format: ADME, organism-based; set-up: dose 5 mg/kg, route ip; conditions: in vivo
[6] = AUCinfinity in CD1 mouse at 5 mg/kg, ip; format: ADME, organism-based; set-up: dose 5 mg/kg, route ip; conditions: in vivo
[7] = Protein binding in mouse plasma assessed as unbound fraction; format: ADME, cell-free

Chain of CYP2C19 (P33261 whole entry): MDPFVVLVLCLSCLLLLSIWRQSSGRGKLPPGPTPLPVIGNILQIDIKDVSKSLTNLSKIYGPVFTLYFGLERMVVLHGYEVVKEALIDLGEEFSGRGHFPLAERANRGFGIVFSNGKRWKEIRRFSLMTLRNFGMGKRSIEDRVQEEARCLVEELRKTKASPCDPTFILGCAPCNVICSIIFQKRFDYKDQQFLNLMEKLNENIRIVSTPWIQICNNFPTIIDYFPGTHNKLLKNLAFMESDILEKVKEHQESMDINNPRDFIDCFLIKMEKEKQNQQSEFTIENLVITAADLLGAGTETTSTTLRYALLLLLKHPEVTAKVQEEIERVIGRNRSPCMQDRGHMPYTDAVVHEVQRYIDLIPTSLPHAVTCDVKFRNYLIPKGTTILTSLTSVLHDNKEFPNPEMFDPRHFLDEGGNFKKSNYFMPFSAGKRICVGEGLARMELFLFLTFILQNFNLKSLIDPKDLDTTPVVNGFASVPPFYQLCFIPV
Chain of CYP2D6 (P10635 whole entry): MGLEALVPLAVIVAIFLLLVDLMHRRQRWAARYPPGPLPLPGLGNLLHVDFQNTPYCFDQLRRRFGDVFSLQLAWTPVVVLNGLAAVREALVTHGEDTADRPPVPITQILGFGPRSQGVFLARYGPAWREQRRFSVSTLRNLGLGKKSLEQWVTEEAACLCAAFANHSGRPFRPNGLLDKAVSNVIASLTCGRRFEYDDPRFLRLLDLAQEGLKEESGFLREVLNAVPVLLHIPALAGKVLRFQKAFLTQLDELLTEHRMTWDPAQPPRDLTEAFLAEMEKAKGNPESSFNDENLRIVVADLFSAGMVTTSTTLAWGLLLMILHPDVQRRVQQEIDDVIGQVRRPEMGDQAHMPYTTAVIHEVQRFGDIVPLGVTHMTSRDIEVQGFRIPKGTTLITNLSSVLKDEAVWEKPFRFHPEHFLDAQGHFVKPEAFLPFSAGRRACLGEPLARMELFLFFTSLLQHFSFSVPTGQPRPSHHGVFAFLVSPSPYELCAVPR
Chain of CYP3A4 (P08684 whole entry): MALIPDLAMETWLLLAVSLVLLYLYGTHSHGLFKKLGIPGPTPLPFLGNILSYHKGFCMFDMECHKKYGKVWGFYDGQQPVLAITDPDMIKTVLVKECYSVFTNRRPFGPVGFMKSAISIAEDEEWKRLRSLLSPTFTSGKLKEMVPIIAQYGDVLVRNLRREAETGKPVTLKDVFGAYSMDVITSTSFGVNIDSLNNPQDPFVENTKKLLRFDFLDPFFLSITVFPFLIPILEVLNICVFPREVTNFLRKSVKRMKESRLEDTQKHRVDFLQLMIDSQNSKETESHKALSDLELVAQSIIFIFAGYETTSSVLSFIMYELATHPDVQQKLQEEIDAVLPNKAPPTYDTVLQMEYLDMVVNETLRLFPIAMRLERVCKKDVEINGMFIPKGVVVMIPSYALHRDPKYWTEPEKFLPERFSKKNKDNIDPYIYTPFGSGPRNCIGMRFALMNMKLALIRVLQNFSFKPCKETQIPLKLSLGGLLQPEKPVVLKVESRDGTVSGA

Row | SMILES | inhibition at 25 µM (SW-620) | also measured
1 | O=C(Nc1ccc(N2CCN(C(=O)c3ccccn3)CC2)cc1)c1cc2ccccc2o1 | 44.8% | –
2 | O=C(NC(=S)Nc1ccc(-c2nc3ccccc3[nH]2)cc1)c1ccc2cccnc2c1 | 0% | –
3 | COc1ccccc1NC(=S)Nc1ccc(-c2nc3ccccc3[nH]2)cc1 | 13.2% | –
4 | O=C1c2ccccc2CCN1C(=S)Nc1ccc(-c2nc3ccccc3o2)cc1 | 0% | Fu [1]: < 0.03%
5 | COc1cc2ccccc2cc1C(=O)NC(=S)Nc1ccc(-c2nc3ccccc3o2)cn1 | 0% | –
6 | COc1ccccc1NC(=O)Nc1ccc(-c2nc3ccccc3[nH]2)cc1 | 23.8% | –
7 | COc1ccccc1NC(=S)Nc1ccc(-c2nc3ccccc3o2)cc1 | 29.2% | –
8 | COc1cc2ccccc2cc1C(=O)NC(=S)Nc1ccc(-c2nnco2)cc1 | 86.5% | inhibition at 10 µM (CYP3A4): 16%; inhibition at 10 µM (CYP2D6): 19%; inhibition at 10 µM (CYP2C19): 37%; half-life [2]: 3.51 h; MRT [3]: 5.3 h; Tmax [4]: 2.33 h; Cmax [5]: 5100 ng/mL; AUC(0-inf) [6]: 34100 ng·h/mL
9 | COc1cc2c(OC)cccc2cc1C(=O)NC(=S)Nc1ccc(-c2nc3ccccc3s2)cc1 | 15.8% | –
10 | COc1cc2ccccc2cc1C(=O)NC(=S)Nc1ccc(-c2cscn2)cc1 | 29% | –
11 | O=C1c2ccccc2CCN1C(=S)Nc1ccc(-c2ncco2)cc1 | 0.9% | –
12 | COc1cc2ccccc2cc1C(=O)NC(=S)Nc1ccc(-c2nc3ccccc3s2)cc1 | 7.1% | –
13 | COc1cc2ccccc2cc1C(=O)NC(=S)Nc1ccc(-c2ncco2)cc1 | 33.1% | –
14 | O=C(NC(=S)Nc1ccc(-c2nc3ccccc3o2)cc1)c1ccc2cccnc2c1 | 0% | –
15 | CCOc1cc2ccccc2cc1C(=O)NC(=S)Nc1ccc(-c2nc3ccccc3s2)cc1 | 13% | –
16 | COc1cc2ccccc2cc1C(=O)NC(=O)Nc1ccc(-c2nc3ccccc3[nH]2)cc1 | 90.8% | Fu [1]: < 0.3%; Fu [7]: < 0.3%
17 | COc1ccccc1C(=O)NC(=S)Nc1ccc(-c2nc3ccccc3o2)cc1 | 17.2% | –
18 | COc1cc2ccccc2cc1C(=O)Nc1ccc(-c2nc3ccccc3s2)cc1 | 42.3% | –
19 | O=C(Nc1ccc(N2CCN(C(=O)c3ccc4ccccc4c3)CC2)cc1)c1cc2ccccc2o1 | 27.8% | –

Row | SMILES | inhibition at 25 µM (SW-620) | also measured
20 | COc1cc2ccccc2cc1C(=O)Nc1ncc(C(F)(F)F)s1 | 17.6% | –
21 | CC(C)Oc1cc2ccccc2cc1C(=O)NC(=S)Nc1ccc(-c2nc3ccccc3o2)cc1 | 17.2% | –
22 | COc1cc2ccccc2cc1C(=O)NC(=S)Nc1ccc(-c2nc3ccccc3s2)cn1 | 71.9% | –
23 | O=C(NC(=S)Nc1ccc(-c2ncco2)cc1)c1ccc2cccnc2c1 | 1.4% | –
24 | O=C(NC(=S)Nc1ccc(-c2nc3ccccc3o2)cc1)c1ccc2ccccc2c1 | 76.4% | Fu [1]: < 0.04%; Fu [7]: < 0.03%
25 | COc1cc2ccccc2cc1C(=O)NC(=O)Nc1ccc(-c2nc3ccccc3s2)cc1 | 0% | –
26 | CCOc1cc2ccccc2cc1C(=O)NC(=S)Nc1ccc(-c2nc3ccccc3o2)cc1 | 0% | –
27 | COc1cc2ccccc2cc1C(=O)NC(=O)Nc1ccc(-c2cscn2)cc1 | 42.6% | Fu [1]: < 0.3%; Fu [7]: < 0.3%
28 | COc1cc2ccccc2cc1C(=O)NC(=S)Nc1ccc(-c2ncc[nH]2)cc1 | 89.9% | inhibition at 10 µM (CYP3A4): 28%; inhibition at 10 µM (CYP2D6): 36%; inhibition at 10 µM (CYP2C19): 43%; half-life [2]: 2.49 h; MRT [3]: 2.7 h; Tmax [4]: 1 h; Cmax [5]: 5060 ng/mL; AUC(0-inf) [6]: 15900 ng·h/mL
29 | COc1ccccc1NC(=O)Nc1ccc(-c2nc3ccccc3o2)cc1 | 19.9% | –
30 | COc1cc2ccccc2cc1C(=O)NC(=S)Nc1ccc(-c2nc3ccccc3[nH]2)cc1 | 68.4% | Fu [1]: < 0.03%; Fu [7]: < 0.01%
31 | COc1cc2ccccc2cc1C(=O)NC(=S)Nc1ccc(-c2nc3ccccc3o2)cc1 | 57.6% | Fu [7]: < 0.03%
32 | COc1cc2ccccc2cc1C(=O)NC(=S)Nc1ccc(-c2ncon2)cc1 | 18.4% | Fu [7]: < 0.03%
33 | COc1cc2ccccc2cc1C(=O)NC(=O)Nc1ccc(-c2nc3ccccc3o2)cc1 | 0% | –
34 | COc1cc2ccccc2cc1C(=O)NC(=S)Nc1ccc(-c2nccs2)cc1 | 34.8% | Fu [7]: 2.2%
35 | COc1ccccc1C(=O)NC(=S)Nc1ccc(-c2nc3ccccc3[nH]2)cc1 | 16.9% | –
36 | O=C(NC(=O)c1ccc2ccccc2c1)Nc1ccc(-c2nc3ccccc3[nH]2)cc1 | 12.7% | –
37 | COc1cc2c(OC)cccc2cc1C(=O)NC(=S)Nc1ccc(-c2nc3ccccc3[nH]2)cc1 | 37.6% | –
38 | CCOc1cc2ccccc2cc1C(=O)NC(=S)Nc1ccc(-c2nnco2)cc1 | 0% | –
